“And” between values parts separate entries of the source, which are not always exact repeats. Equal entries are not always repeated. “Also recorded” adds a separate entry of the source.
How the values were obtained:
AspH = molecular target: T1, AspH (Homo sapiens, UniProt Q12797); conditions: 0.05 μM AspH, 1.0 μM hFX-CP101-119, 3.0 μM 2OG, ref 21 (supplementary ref 1); cited from earlier work
T1 construct: the tetratricopeptide repeat domain (His6-AspH315-758), was produced and purified as previously reported; made in house
T1 sequence (Q12797 315-758): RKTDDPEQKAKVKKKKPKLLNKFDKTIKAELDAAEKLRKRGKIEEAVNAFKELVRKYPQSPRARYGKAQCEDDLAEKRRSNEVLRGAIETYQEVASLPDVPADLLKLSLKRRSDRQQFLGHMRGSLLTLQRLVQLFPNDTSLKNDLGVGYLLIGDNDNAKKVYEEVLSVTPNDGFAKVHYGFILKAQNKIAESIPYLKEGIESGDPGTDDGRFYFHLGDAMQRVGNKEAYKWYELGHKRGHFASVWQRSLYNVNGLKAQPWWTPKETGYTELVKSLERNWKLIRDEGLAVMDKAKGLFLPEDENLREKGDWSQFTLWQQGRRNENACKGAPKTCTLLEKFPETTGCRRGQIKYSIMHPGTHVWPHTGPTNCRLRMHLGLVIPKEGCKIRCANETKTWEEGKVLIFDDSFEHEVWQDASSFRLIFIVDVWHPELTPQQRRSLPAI

FIH [1] = molecular target: T2, FIH (Homo sapiens, UniProt Q9NWT6); test: FIH steady-state kinetic parameters (SPE-MS, initial hydroxylation rates); type: biochemical; set-up: slope of initial reaction rate: unit not given here
Protocol: Final 2OG/2OG derivative concentrations are given in Supplementary Figs. 5 and 6. Reactions were monitored with a rate of ~1 sample/40 s using the same SPE-MS configuration as described above. Data were analyzed as described above and the slopes of the initial reaction rates (Supplementary Figs. 5 and 6) fitted to a Michaelis–Menten plot using non-linear regression (GraphPad Prism 5). […]
determine kinetic parameters for 2OG derivatives (continues on the following page). Maximum velocities (vapp ) and Michaelis constants (Kapp) of FIH were determined in independent triplicates for 2OG and the 2OG […]
SPE-MS as described in the Methods section. […]
acid (LAA), and 20 μM ammonium iron(II) sulfate hexahydrate (FAS, (NH4)2Fe(SO4)2·6H2O) in buffer (50 mM […]
Tris, 50 mM NaCl, pH 7.5, 20° C). […]
data are provided as a Source Data file. […]
concentrations of 2OG; (b) hydroxylation rates used to determine kinetic parameters of FIH for 2OG; (c) time […]
3-methyl-2OG (1); (d) hydroxylation rates used to determine kinetic parameters of FIH for 1; (e) time course of […]
2OG (12); (f) hydroxylation rates used to determine kinetic parameters of FIH for 12; (g) time course of the FIH- […]
(h) hydroxylation rates used to determine kinetic parameters of FIH for 14; (i) time course of the FIH-catalyzed […]
(carboxycarbonyl)cyclopentane-1-carboxylic acid (22); (j) hydroxylation rates used to determine kinetic parameters of FIH for 22.
Supplementary Figure 6. Hydroxylation rates of FIH-catalyzed CA1-20 hydroxylations used to determine kinetic parameters for 2OG derivatives (continues on the following page). Maximum velocities (vapp ) and […]
ammonium iron(II) sulfate hexahydrate (FAS, (NH4)2Fe(SO4)2·6H2O) in buffer (50 mM Tris, 50 mM NaCl, pH […]
Source data are provided as a Source […]
of 2OG; (b) hydroxylation rates used to determine kinetic parameters of FIH for 2OG; (c) time course of the FIH-catalyzed hydroxylation reaction of the CA1-20 peptide for the shown concentrations of 3-methyl-2OG (1); (d) hydroxylation rates used to determine kinetic parameters of FIH for 1; (e) time course of the FIH -catalyzed hydroxylation reaction of the CA 1-20 peptide for the shown concentrations of 4 -methyl-2OG (12); (f) hydroxylation rates used to determine kinetic parameters of FIH for 12; (g) time course of the FIH-catalyzed hydroxylation reaction of the CA1-20 peptide for the shown concentrations of 4-ethyl-2OG (14); (h) hydroxylation rates used to determine kinetic parameters of FIH for 14; (i) time course of the FIH-catalyzed hydroxylation reaction of the CA1-20 peptide for the shown concentrations of 3-(carboxycarbonyl)cyclopentane-1-carboxylic acid (22); (j) hydroxylation rates used to determine kinetic parameters of FIH for 22.

FIH [2] = molecular target: T2, FIH; test: SPE-MS FIH turnover (cosubstrate) assay in the absence of 2OG; type: biochemical; conditions: 330 μM 2OG or 2OG derivative, no 2OG, t = 15 min
Summary of the method: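 With 2OG omitted, 2OG analogues were tested as cosubstrates for recombinant FIH, and +16 Da hydroxylated product versus remaining substrate was monitored by C4 solid-phase extraction coupled to MS. Percent conversion came from product integral over summed substrate and product integrals.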

T2 sequence (Q9NWT6 whole entry): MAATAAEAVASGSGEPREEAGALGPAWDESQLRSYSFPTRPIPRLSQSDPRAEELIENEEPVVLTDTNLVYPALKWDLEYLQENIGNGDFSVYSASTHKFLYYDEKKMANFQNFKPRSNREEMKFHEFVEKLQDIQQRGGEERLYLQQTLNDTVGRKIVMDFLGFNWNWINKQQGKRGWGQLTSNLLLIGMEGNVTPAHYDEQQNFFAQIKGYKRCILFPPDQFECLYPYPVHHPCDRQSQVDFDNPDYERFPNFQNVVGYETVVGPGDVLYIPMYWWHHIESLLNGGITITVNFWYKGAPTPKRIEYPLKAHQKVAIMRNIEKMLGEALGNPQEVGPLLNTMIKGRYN

CC(CC(=O)C(=O)O)C(=O)O (stereo not shown) [compound 12, 4-methyl-2OG]
IC50 AspH (AspH): inactive; also recorded: neither inhibits AspH nor FIH | SPE-MS determined concentration of hydroxylated HIF-1a peptide (FIH [1]; 0.25 uM compound 12, time 0.699833 min): 0.04437 µM and 0.04741 µM and 0.03831 µM | SPE-MS determined concentration of hydroxylated HIF-1a peptide (FIH [1]; 0.25 uM compound 12, time 2.098 min): 0.08198 µM and 0.1152 µM and 0.1017 µM | SPE-MS determined concentration of hydroxylated HIF-1a peptide (FIH [1]; 0.5 uM compound 12, time 0.699833 min): 0.06422 µM and 0.08062 µM and 0.07548 µM | SPE-MS determined concentration of hydroxylated HIF-1a peptide (FIH [1]; 0.5 uM compound 12, time 2.098 min): 0.1727 µM and 0.153 µM and 0.1556 µM | SPE-MS determined concentration of hydroxylated HIF-1a peptide (FIH [1]; 0.5 uM compound 12, time 2.797 min): 0.211 µM | SPE-MS determined concentration of hydroxylated HIF-1a peptide (FIH [1]; 1 uM compound 12, time 0.699833 min): 0.1124 µM and 0.1213 µM and 0.1053 µM | SPE-MS determined concentration of hydroxylated HIF-1a peptide (FIH [1]; 1 uM compound 12, time 2.098 min): 0.2072 µM and 0.2617 µM and 0.2659 µM | SPE-MS determined concentration of hydroxylated HIF-1a peptide (FIH [1]; 1 uM compound 12, time 2.797 min): 0.2567 µM and 0.3212 µM and 0.319 µM | SPE-MS determined concentration of hydroxylated HIF-1a peptide (FIH [1]; 2 uM compound 12, time 0.699833 min): 0.1658 µM and 0.1554 µM and 0.162 µM | SPE-MS determined concentration of hydroxylated HIF-1a peptide (FIH [1]; 2 uM compound 12, time 2.098 min): 0.3451 µM and 0.3558 µM and 0.3835 µM | SPE-MS determined concentration of hydroxylated HIF-1a peptide (FIH [1]; 2 uM compound 12, time 2.797 min): 0.4027 µM and 0.4334 µM and 0.458 µM | SPE-MS determined concentration of hydroxylated HIF-1a peptide (FIH [1]; 4 uM compound 12, time 0.699833 min): 0.2736 µM and 0.2242 µM and 0.2062 µM | SPE-MS determined concentration of hydroxylated HIF-1a peptide (FIH [1]; 4 uM compound 12, time 2.098 min): 0.6118 µM and 0.4979 µM and 0.4845 µM | SPE-MS determined concentration of hydroxylated HIF-1a peptide (FIH [1]; 4 uM compound 12, time 2.797 min): 0.7774 µM and 0.6268 µM and 0.6241 µM | SPE-MS determined concentration of hydroxylated HIF-1a peptide (FIH [1]; 8 uM compound 12, time 0 min): 0.06164 µM and 0.06905 µM and 0.05066 µM | SPE-MS determined concentration of hydroxylated HIF-1a peptide (FIH [1]; 8 uM compound 12, time 0.699833 min): 0.2593 µM and 0.272 µM and 0.2286 µM | SPE-MS determined concentration of hydroxylated HIF-1a peptide (FIH [1]; 8 uM compound 12, time 2.098 min): 0.6058 µM and 0.6256 µM and 0.5278 µM | SPE-MS determined concentration of hydroxylated HIF-1a peptide (FIH [1]; 8 uM compound 12, time 2.797 min): 0.7712 µM and 0.7937 µM and 0.6846 µM | SPE-MS determined concentration of hydroxylated HIF-1a peptide (FIH [1]; 16 uM compound 12, time 0 min): 0.09407 µM and 0.05485 µM and 0.06025 µM | SPE-MS determined concentration of hydroxylated HIF-1a peptide (FIH [1]; 16 uM compound 12, time 0.699833 min): 0.2985 µM and 0.2562 µM and 0.2621 µM | SPE-MS determined concentration of hydroxylated HIF-1a peptide (FIH [1]; 16 uM compound 12, time 2.098 min): 0.6815 µM and 0.5982 µM and 0.6264 µM | SPE-MS determined concentration of hydroxylated HIF-1a peptide (FIH [1]; 16 uM compound 12, time 2.797 min): 0.848 µM and 0.7909 µM and 0.7891 µM | SPE-MS determined concentration of hydroxylated HIF-1a peptide (FIH [1]; 32 uM compound 12, time 0 min): 0.0933 µM and 0.07278 µM and 0.06334 µM | SPE-MS determined concentration of hydroxylated HIF-1a peptide (FIH [1]; 32 uM compound 12, time 0.699833 min): 0.2746 µM and 0.2712 µM and 0.2731 µM | SPE-MS determined concentration of hydroxylated HIF-1a peptide (FIH [1]; 32 uM compound 12, time 2.098 min): 0.594 µM and 0.6472 µM and 0.6437 µM | SPE-MS determined concentration of hydroxylated HIF-1a peptide (FIH [1]; 32 uM compound 12, time 2.797 min): 0.7489 µM and 0.8116 µM and 0.8049 µM | slope of initial reaction rate (FIH [1]; CA1-20, 0.25 μM 12): 0.003176 and 0.003306 | slope of initial reaction rate (FIH [1]; CA1-20, 0.5 μM 12): 0.006776 and 0.007676 and 0.008102 | slope of initial reaction rate (FIH [1]; CA1-20, 1 μM 12): 0.01054 and 0.007937 and 0.01116 | slope of initial reaction rate (FIH [1]; CA1-20, 2 μM 12): 0.01217 and 0.0142 and 0.01263 | slope of initial reaction rate (FIH [1]; CA1-20, 4 μM 12): 0.01597 and 0.01096 and 0.0129 | slope of initial reaction rate (FIH [1]; CA1-20, 8 μM 12): 0.01648 and 0.01721 and 0.01973 | slope of initial reaction rate (FIH [1]; HIF-1a788-822, 0.25 μM 12): 0.000487 and 0.000839 and 0.000746 | slope of initial reaction rate (FIH [1]; HIF-1a788-822, 0.5 μM 12): 0.000918 and 0.001031 and 0.00127 | slope of initial reaction rate (FIH [1]; HIF-1a788-822, 1 μM 12): 0.001321 and 0.001828 and 0.001913 | slope of initial reaction rate (FIH [1]; HIF-1a788-822, 2 μM 12): 0.00207 and 0.002424 and 0.002687 | slope of initial reaction rate (FIH [1]; HIF-1a788-822, 4 μM 12): 0.004223 and 0.003389 and 0.00353 | slope of initial reaction rate (FIH [1]; HIF-1a788-822, 8 μM 12): 0.004209 and 0.004298 and 0.003737 | slope of initial reaction rate (FIH [1]; HIF-1a788-822, 16 μM 12): 0.004508 and 0.004326 and 0.004345 | slope of initial reaction rate (FIH [1]; HIF-1a788-822, 32 μM 12): 0.003886 and 0.004421 and 0.004419 | FIH activity, %-substrate conversion (FIH [2]; CA1–20 substrate): ~80% | FIH activity, %-substrate conversion (FIH [2]; HIF-1α788–822 substrate): ~45%

Source: article PMC8580996, “2-Oxoglutarate derivatives can selectively enhance or inhibit the activity of human oxygenases” (Nature Communications, 2021)
